Assay results reported in US20220218639A1.
Several values for one entry are separate records, joined by “and”; a condition that tells them apart may be missing. Identical values can stand only once.

Assays:
δ-plasmin = biological target: T1, δ-plasmin (Homo sapiens, UniProt P00747, DEL181-559); assay: S-2251 inhibition assay (Dixon plot), δ-plasmin; type: biochemical; conditions: for mode of inhibition (δ-plasmin): Dixon plot with S/Vo vs I plot; for Ki: Dixon plot, S-2251 100, 350, 750 μM, enzyme 1.0 μg/mL, PBS pH 7.4, unit inferred; for Pen X-Fold inhibition (Delta Plasmin): Ki of the inhibitor relative to Ki of pentamidine
T1 construct: made in house; host or cells: E. coli (T7 expression system, pET 24b(+))
T1 sequence (P00747 with tags, fused parts or gaps K528E/G536N/V538P/G539Q/N547D/R549E/L551R/V557I/P558L/Q559E): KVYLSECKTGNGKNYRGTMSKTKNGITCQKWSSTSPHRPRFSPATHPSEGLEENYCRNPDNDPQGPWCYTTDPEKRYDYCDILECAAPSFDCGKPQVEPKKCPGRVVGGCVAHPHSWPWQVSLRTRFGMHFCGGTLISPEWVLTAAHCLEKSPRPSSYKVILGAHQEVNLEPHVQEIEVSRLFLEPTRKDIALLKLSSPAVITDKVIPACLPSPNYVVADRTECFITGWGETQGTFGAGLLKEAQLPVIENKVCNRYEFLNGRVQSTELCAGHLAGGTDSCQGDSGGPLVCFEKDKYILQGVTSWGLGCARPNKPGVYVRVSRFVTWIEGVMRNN

plasmin [1] = biological target: T2, plasmin (Homo sapiens, UniProt P00747); assay: S-2251 inhibition assay (Dixon plot), plasmin; type: biochemical; set-up: purchased Sigma-Aldrich; conditions: for mode of inhibition (plasmin): Dixon plot with S/Vo vs I plot; for Ki: Dixon plot, S-2251 100, 350, 750 μM, enzyme 1.0 μg/mL, PBS pH 7.4, unit inferred; for Pen X-Fold inhibition (Plasmin): Ki of the inhibitor relative to Ki of pentamidine
T2 sequence (P00747 581-810 limits assumed): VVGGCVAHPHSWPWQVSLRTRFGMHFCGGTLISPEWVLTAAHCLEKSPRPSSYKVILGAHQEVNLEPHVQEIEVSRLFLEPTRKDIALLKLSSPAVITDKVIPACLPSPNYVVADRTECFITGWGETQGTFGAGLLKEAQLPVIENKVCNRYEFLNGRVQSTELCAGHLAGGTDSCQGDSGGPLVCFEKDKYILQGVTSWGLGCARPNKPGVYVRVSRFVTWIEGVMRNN
T2 sequence (P00747 97-580 partner limits assumed): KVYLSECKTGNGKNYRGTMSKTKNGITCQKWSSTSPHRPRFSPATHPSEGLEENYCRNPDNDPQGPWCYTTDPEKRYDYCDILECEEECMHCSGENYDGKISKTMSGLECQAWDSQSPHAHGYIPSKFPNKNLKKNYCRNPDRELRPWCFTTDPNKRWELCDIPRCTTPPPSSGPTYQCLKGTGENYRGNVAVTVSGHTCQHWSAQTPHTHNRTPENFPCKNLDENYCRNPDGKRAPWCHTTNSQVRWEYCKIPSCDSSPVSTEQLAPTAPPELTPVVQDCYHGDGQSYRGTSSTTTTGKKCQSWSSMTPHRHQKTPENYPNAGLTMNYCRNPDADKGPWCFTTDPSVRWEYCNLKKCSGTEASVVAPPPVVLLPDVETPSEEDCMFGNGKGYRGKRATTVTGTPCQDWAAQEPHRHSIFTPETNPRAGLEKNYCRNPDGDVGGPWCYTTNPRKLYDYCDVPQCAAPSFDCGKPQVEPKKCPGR

plasmin [2] = biological target: T2, plasmin; assay: Fluorescence titration dissociation constant (Kd) assay; type: binding; set-up: purchased Sigma-Aldrich; host or cells: human plasma; conditions: emission 370 nm, PBS pH 7.4, no S-2251; unit inferred; read-out: Kd by fluorescence titration (PB Fl Ki)
Method: Fluorescence Titration Dissociation Constant (Kd) Assay. Plasmin was titrated with increasing concentrations of 4-aminobenzamidine from 0-1000 μM in PBS buffer at pH 7.4. By monitoring the increase in fluorescence emission (excitation 280 nm, emission at 370 nm) from 4-aminobenzamdine associated plasmin, a direct determination of its dissociation constant (Kd) can be made. Fitting the data to a sigmoid the Kd value for 4-aminobenzamidine to sigma plasmin is the concentration of inhibitor at which 50% (or 0.5 or half maximum fluorescent emission is reached) intersects with the fit.
Fluorescent titration assay was carried out as described above for determining the Kd, which is the same as the Ki in the case of competitive inhibition, for the 4-aminobenzamidine derivative to plasmin in the absence of the S-2251 substrate.
p-Aminobenzamidine's fluorescent properties enable the implementation of a fluorescent titration assay to directly determine its binding affinity to plasmin. […] At a constant plasmin concentration, increasing amounts of p-aminobenzamidine were titrated into the sample monitoring the fluorescence emission at 370 nm (FIG. 10A).

[3] = Enzyme kinetics with S-2251 chromogenic substrate (Lineweaver-Burke plot); type: biochemical; set-up: Kcat: unit not given here; conditions: for Kcat: S-2251 substrate, PBS pH 7.4, unit not given
Method: Enzyme Kinetic and Inhibition Assays. All enzymatic assays were conducted in phosphate buffered saline (PBS, pH 7.4) at 25° C. on a Molecular Devices SpectraMax Plus 96 well plate reader. The S-2251 assay took advantage of a shift in absorbance of the substrate upon cleaving that could be monitored at a wavelength of 405 nm to determine enzyme kinetics as well as competitive inhibition Ki values for plasmin and its derivatives. […] Initial velocities were determined by the slope of the first 60 seconds of reaction with the S-2251 substrate. All experiments were carried out in triplicate and data represents means plus or minus standard deviations.
In this Example, the predicted kinetic characteristics of plasmin and delta-plasmin were compared. KM, Vmax and Kcat were determined for both full length plasmin and delta plasmin using a Lineweaver-Burke plot in which the concentration of plasmin was held constant across a range of S-2251 substrate concentrations (0-750 μM). Initial velocities for each data point were determined by the slope of the first 60 seconds of reaction with the S-2251 substrate following absorbance at 405 nm.
The Km and Kcat for the two forms of plasmin were determined utilizing an S2251 chromogenic substrate.

blood clots = assay: Clot digestion assay in serum; conditions: 50% serum, 2 hours room temp, background-corrected
Method: In this Example, blood clot digestion by nanoparticles prepared using 4-carboxybenzamidine conjugated micelles and delta plasmin was analyzed in both PBS and serum.
Fresh blood was drawn and clotted in glass tubes at 37° C. for 1.5 hours. Clots were then cut, excess liquid was removed via light blotting, and weighed to produce clots of ˜600 mg size. Clots were then transferred to phosphate buffered saline (PBS at pH 7.4) or serum. […] After incubation, the blood clots were again lightly blotted and weighed. Experimental parameters are summarized in Table 3 for the clot digestion assay performed in serum.

| mode of inhibition (δ-plasmin) (δ-plasmin) | Ki (δ-plasmin) | Pen X-Fold inhibition (Delta Plasmin) (δ-plasmin) | mode of inhibition (plasmin) (plasmin [1]) | Ki (plasmin [1]) | Pen X-Fold inhibition (Plasmin) (plasmin [1]) | Kd (plasmin [2]) | Compound | stronger inhibition than the next best inhibitor (delta plasmin) (δ-plasmin; from Ki values) | stronger inhibition than the next best inhibitor (plasmin) (plasmin [1]; from Ki values) | Vmax ([3]; S-2251 0-750 μM, PBS pH 7.4, 25° C.) | Km ([3]; S-2251 0-750 μM, PBS pH 7.4, 25° C., unit inferred) | Kcat [3] | Kcat ([3]; listed as δ-plasmin) | clot digestion (blood clots) |
| --- | --- | --- | --- | --- | --- | --- | --- | --- | --- | --- | --- | --- | --- | --- |
| purely competitive | 60.6 ± 6.72 µM | 15.2 | purely competitive | 51.9 ± 2.38 µM | 23.8 | 53.5 ± 4.42 µM | N=C(N)c1ccc(N)cc1 [4-Aminobenzamidine] |  |  |  |  |  |  |  |
| purely competitive | > 1000 µM and 1410 µM | 353.8 | purely competitive | > 1000 µM and 1070 µM | 493.0 |  | N=C(N)c1ccc(CN)cc1 [4-Aminomethyl Benzamidine] |  |  |  |  |  |  |  |
| purely competitive | 302 ± 19.2 µM | 75.8 | purely competitive | 292 µM and 293 µM | 134.2 |  | N=C(N)c1ccc(C(=O)O)cc1 [4-Carboxybenzamidine] |  |  |  |  |  |  |  |

Second part, the compound before the results:

| Compound | mode of inhibition (δ-plasmin) (δ-plasmin) | Ki (δ-plasmin) | Pen X-Fold inhibition (Delta Plasmin) (δ-plasmin) | mode of inhibition (plasmin) (plasmin [1]) | Ki (plasmin [1]) | Pen X-Fold inhibition (Plasmin) (plasmin [1]) | Kd (plasmin [2]) | stronger inhibition than the next best inhibitor (delta plasmin) (δ-plasmin; from Ki values) | stronger inhibition than the next best inhibitor (plasmin) (plasmin [1]; from Ki values) | Vmax ([3]; S-2251 0-750 μM, PBS pH 7.4, 25° C.) | Km ([3]; S-2251 0-750 μM, PBS pH 7.4, 25° C., unit inferred) | Kcat [3] | Kcat ([3]; listed as δ-plasmin) | clot digestion (blood clots) |
| --- | --- | --- | --- | --- | --- | --- | --- | --- | --- | --- | --- | --- | --- | --- |
| N=C(N)c1ccccc1 [Benzamidine] | purely competitive |  |  | purely competitive |  |  |  |  |  |  |  |  |  |  |
| N=C(N)c1ccc(OCCCCCOc2ccc(C(=N)N)cc2)cc1 [Pentamidine] | primarily competitive |  |  | primarily competitive | < 4 µM and 2.2 µM |  |  | > 15 fold | > 15 fold |  |  |  |  |  |
| Delta Plasmin: Recombinant plasmin variant with K2-K5 deleted; kringle 1 linked directly with the catalytic domain (SEQ ID NO:2 zymogen) |  |  |  |  |  |  |  |  |  | 19.5 | 325 ± 8.43 µM | 778.2 | 778.21±1.51 | 7.175% |
